According to paper PMC9221546, “New Phenylglycinamide Derivatives with Hybrid Structure as Candidates for New Broad-Spectrum Anticonvulsants” (Cells, 2022):
Where two headings read alike, the source gives them in different places. Marks after values point to notes of the source that are not given here.

Key:
[1] = test system: 6 Hz (44 mA) seizures in mice; conditions: i.p., pretreatment 0.5 h; cited from earlier work
[2] = test system: MES-induced seizures in mice; conditions: i.p., cited from earlier work
[3] = test system: mice; conditions: i.p., acute neurological deficit, cited from earlier work
[4] = test system: mice; assay: Capsaicin-induced hypothermia model / core body temperature; type: in vivo; conditions: compound 60 50 mg/kg, BCTC 20 mg/kg
Method: Capsaicin was dissolved in 1% DMSO and administered at a dose of 5 mg/kg at a time point 0 min. Compound 60 and BCTC (positive control) were suspended in 1% Tween 80 and administered 15 min before capsaicin (at time point -15 min). All compounds were injected i.p. at a constant volume of 10 mL/kg. Control animals received the respective vehicles (1% DMSO or 1% Tween 80). Changes in the rectal temperature were measured using an electronic thermometer (ThermoWorks, Alpine, UT, USA) by inserting the rectal probe to a depth of ~2 cm into the rectum of the mouse. The measurements were taken at −15, 0, 15, 30, 60, 90, 120, and 180 min. The differences in the rectal temperature from baseline (time -15 min for groups receiving compound 60 and BCTC in combination with vehicle or time 0 min for groups receiving vehicle and capsaicin or compound 60 and BCTC in combination with capsaicin) to the respective time point ΔT (°C) were then calculated and analyzed. The results are shown in Figure 4 (see Section 3 Results and Discussion).
Figure 4 Effects of compound 60 and BCTC alone (A) or in combination with capsaicin (B) on the core body temperature in mice. Capsaicin (CPS) was injected at 0 min, as indicated by the arrow. Compound 60 or BCTC were administered 15 min prior to CPS injection. The temperature was measured at −15, 0, 15, 30, 60, 90, 120, and 180 min. Since body temperature returned to control values 60 min after CPS injection, subsequent measurements are not shown. Control animals received vehicles (1% DMSO or 1% Tween 80). All the compounds were administered i.p. Each experimental group consisted of seven to eight animals. The data are presented as the mean differences (ΔT) in rectal temperature from baseline (time −15 for A and time 0 for B) to the respective time point. The data were analyzed with one-way ANOVA followed by Tukey’s post hoc test. ** p < 0.01, *** p < 0.001, **** p < 0.0001 vs. the control group; ^#### p < 0.0001 vs. the CPS-treated group.

[5] = test system: 6 Hz (32 mA) seizures in mice; conditions: i.p., pretreatment 0.5 h (LEV 1.0 h); cited from earlier work
[6] = molecular target: T1, Cav1.2 (h) calcium ion channel (Homo sapiens, UniProt Q13936); assay: Cav1.2 (h) calcium ion channel cell-based antagonist calcium flux assay; conditions: HEK293, human recombinant HEK-293 cell, read-out: % Inhibition of control agonist response, Cav1.2 calcium flux
T1 construct: Eurofins
Method: (§1) Binding/functional studies were carried out commercially in Eurofins Laboratories (Poitiers, France) and Eurofins Panlabs Discovery Services Taiwan, Ltd. (New Taipei City, Taiwan) using testing procedures that were reported previously (for details see Table S2).
(§2) Table S2. Radioligand binding and functional assays. […]
TRPV1 (VR1) (h) (antagonist effect)
Cav1.2 (L-type) (h) calcium ion channel cell-based antagonist calcium flux assay
Assays were performed commercially in Eurofins Laboratories (Poitiers, France) or Eurofins Panlabs Discovery
Services Taiwan, Ltd. (New Taipei City, Taiwan). […]

[7] = molecular target: T2, recombinant human CYP2C9 (Homo sapiens, UniProt P11712); assay: CYP2C9 P450-Glo luminescent assay; type: in vitro ADME
T2 construct: purchased Promega (Madison, WI, USA)
Method: The risk of potential DDIs was predicted with use of luminescent CYP3A4, 2D6, and 2C9 P450-Glo assays (Figure 6). […] However, such an effect was also observed in our previous studies for other pyrrolidine-2,5-dione derivatives. […] However, the potential risk of DDI of 60 was still assessed as very low, and was compared to the selective CYP2C9 inhibitor sulfaphenazole (Figure 6C).
The data were analyzed with one-way ANOVA, followed by Bonferroni’s Multiple Comparison Post Test (Graph Pad Prism 8.0.1 software, San Diego, CA, USA)): * p < 0.05, ** p < 0.01, *** p < 0.001 **** p < 0.0001. The compounds were examined in triplicate.

[8] = test system: scPTZ-induced seizures in mice; assay: Subcutaneous pentylenetetrazole (scPTZ) seizure test; type: in vivo; conditions: 100 mg/kg i.p., 0.5 h
Method: (§3) Adult male Albino Swiss mice that weighed between 22 and 26 g were used in the in vivo studies. They were housed under standardized housing conditions in colony cages and had free access to food as well as tap water. The animals were left to adapt under laboratory conditions for 7 days. All procedures involving animals and their care were performed in accordance with the current European Community and Polish legislation on animal experimentation.
(§4) In the initial screening studies, four mice per group were randomly assigned to each experimental group (each mouse was used only once). To evaluate the ED50 or TD50 values, 3–4 groups that consisted of eight animals were injected with various doses of tested compounds. The protective indexes (PIs) for the compounds that were investigated and reference ASDs were calculated by dividing the TD50 value, as determined in the chimney test (or rotarod test), by the respective ED50 value, as determined in the MES, scPTZ, or 6 Hz (32 mA or 44 mA) tests (PI = TD50/ED50). The PIs is a measure of the potential therapeutic window of the tested agent.
(§5) All substances were suspended in Tween 80 (1% aqueous solution) and administered i.p. as a single injection at a dose of 10 mL/kg. On each day of experimentation, fresh solutions were prepared. The results are summarized in Table S1 (screening data) and Table 2 (ED50, TD50, and PI values, see Section 3 Results and Discussion).
(§6) The detailed in vivo procedures are described elsewhere: the maximal electroshock seizure test (MES), the subcutaneous pentylenetetrazole seizure test (scPTZ), the 6 Hz psychomotor seizure model (32 mA and 44 mA), and the chimney test.
(§7) The basic animal seizure models such as the MES, 6 Hz (32 mA or 44 mA), and the scPTZ are still a standard in the discovery and development of new ASDs. In vivo screening approaches enable the identification of compounds with unidentified and potentially novel mechanisms of action besides substances with well-established pharmacodynamics. Bearing in mind the aforementioned facts, compounds 45–66 were initially studied in the MES test and in the 6 Hz seizure model (32 mA) after intraperitoneal (i.p.) administration at a screening dose of 100 mg/kg in mice at a time point of 0.5 h (the screening group consisted of four mice, the results obtained are summarized in Table S1). It should be stressed that the MES test is an experimental model of human tonic–clonic epilepsy as well as partial convulsions with or without secondary generalization, the 6 Hz model (32 mA) corresponds to human focal epilepsy, whereas the scPTZ test relates to human generalized absence or myoclonic seizures.

[9] = molecular target: T3, TRPV1 (VR1) (h) (Homo sapiens, UniProt Q8NER1); assay: TRPV1 (VR1) (h) antagonist effect functional assay; type: cell-based; conditions: human recombinant CHO cells
T3 construct: host or cells: CHO

[10] = test system: Na+ channel (site 2); assay: Na+ channel (site 2) radioligand binding; conditions: rat cerebral cortex
[11] = test system: 6 Hz (32 mA) seizures in mice; assay: 6 Hz (32 mA) psychomotor seizure model; type: in vivo
Method: as §3, §4, §5, §6, §7
(§8) We also established the median toxic doses (TD50) in the chimney test 0.5 h post i.p. administration of these compounds. Both the aforementioned parameters enabled the calculation of the protective indexes (PIs).

[12] = molecular target: T3, TRPV1 (VR1) (h); assay: TRPV1 (VR1) (h) antagonist effect functional assay; type: cell-based; conditions: human recombinant CHO cells, read-out: % Inhibition of control agonist response, TRPV1 (antagonist effect)
Method: as §1, §2
Assays were performed commercially in Eurofins Laboratories (Poitiers, France) or Eurofins Panlabs Discovery Services Taiwan, Ltd. (New Taipei City, Taiwan).
Table S3. In vitro TRPV1 channel antagonist activity for compounds 45–66 (concentration of 100 µM). […]
Cmpd % Inhibition of control Cmpd % Inhibition of control agonist responsea agonist responsea
*Source: human recombinant CHO cells. a Results showing activity higher than 50% are considered to represent […]
variability of the sign al around the control level. Assays were performed commercially in Eurofins Laboratories

[13] = molecular target: T4, Calcium Cav1.2 channels (dihydropyridine site) (Homo sapiens, UniProt Q13936); assay: Calcium Cav1.2 channel binding (dihydropyridine site, antagonist radioligand); conditions: human recombinant HEK-293 cell, read-out: % Inhibition of Control Specific Binding, Cav1.2 (dihydropyridine site)
T4 construct: host or cells: HEK-293

[14] = Metabolic stability in human liver microsomes (HLMs)
[15] = test system: hepatoma HepG2 cell line; assay: Hepatotoxicity, HepG2 viability (MTS); type: cell-based; conditions: 72 h treatment
Method: Figure 7 The effect of 53, 60, and 62, cytostatic drug doxorubicin (DX) and the mitochondrial toxin CCCP on the hepatoma HepG2 cell line viability after 72 h of incubation at 37 °C, 5% CO2. The data were analyzed with one-way ANOVA, followed by Bonferroni’s Comparison Test (Graph Pad Prism 8.0.1 software, San Diego, CA, USA)): ** p < 0.01, **** p < 0.0001 vs. negative control (DMSO 1% in growth media).

[16] = test system: MES-induced seizures in mice; assay: Maximal electroshock seizure (MES) test; type: in vivo; conditions: for protection in MES screening / responders at 100 mg/kg: 100 mg/kg i.p., 0.5 h; for protection in MES screening: four mice; for responders at 100 mg/kg: read-out: MES screening: number of mice protected/number of mice tested (converted)
Method: as §3, §4, §5, §6, §7, §8

[17] = Mus musculus, ip, 100 mg/kg i.p., 0.5 h, read-out: 6 Hz (32 mA) screening: number of mice protected/number of mice tested (converted)
[18] = Mus musculus, ip, mice, pretreatment time 0.5 h, (95% confidence limits)

T3 sequence (Q8NER1 whole entry): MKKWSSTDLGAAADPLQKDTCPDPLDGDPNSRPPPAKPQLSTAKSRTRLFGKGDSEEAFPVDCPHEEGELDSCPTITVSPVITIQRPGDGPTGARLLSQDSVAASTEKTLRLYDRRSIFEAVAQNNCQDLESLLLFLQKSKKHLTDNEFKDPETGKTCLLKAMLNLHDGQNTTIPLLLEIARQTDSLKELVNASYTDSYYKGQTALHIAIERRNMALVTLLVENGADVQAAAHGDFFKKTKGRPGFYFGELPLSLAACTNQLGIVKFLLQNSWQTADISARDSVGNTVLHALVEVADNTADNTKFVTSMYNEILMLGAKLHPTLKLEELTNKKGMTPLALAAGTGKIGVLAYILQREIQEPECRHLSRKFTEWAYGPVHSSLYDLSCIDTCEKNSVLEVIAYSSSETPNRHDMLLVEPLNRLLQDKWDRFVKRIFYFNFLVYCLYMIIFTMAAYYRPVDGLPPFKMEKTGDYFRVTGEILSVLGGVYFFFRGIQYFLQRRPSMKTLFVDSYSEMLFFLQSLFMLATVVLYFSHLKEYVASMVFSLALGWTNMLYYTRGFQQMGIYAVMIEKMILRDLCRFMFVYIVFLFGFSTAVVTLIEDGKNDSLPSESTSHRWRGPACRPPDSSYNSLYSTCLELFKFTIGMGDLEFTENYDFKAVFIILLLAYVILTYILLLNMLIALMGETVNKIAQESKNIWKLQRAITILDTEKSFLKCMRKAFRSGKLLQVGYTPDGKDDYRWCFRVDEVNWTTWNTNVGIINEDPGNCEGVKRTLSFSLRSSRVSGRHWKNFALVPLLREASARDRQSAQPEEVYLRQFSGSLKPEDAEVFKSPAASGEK
T4 sequence (Q13936 whole entry): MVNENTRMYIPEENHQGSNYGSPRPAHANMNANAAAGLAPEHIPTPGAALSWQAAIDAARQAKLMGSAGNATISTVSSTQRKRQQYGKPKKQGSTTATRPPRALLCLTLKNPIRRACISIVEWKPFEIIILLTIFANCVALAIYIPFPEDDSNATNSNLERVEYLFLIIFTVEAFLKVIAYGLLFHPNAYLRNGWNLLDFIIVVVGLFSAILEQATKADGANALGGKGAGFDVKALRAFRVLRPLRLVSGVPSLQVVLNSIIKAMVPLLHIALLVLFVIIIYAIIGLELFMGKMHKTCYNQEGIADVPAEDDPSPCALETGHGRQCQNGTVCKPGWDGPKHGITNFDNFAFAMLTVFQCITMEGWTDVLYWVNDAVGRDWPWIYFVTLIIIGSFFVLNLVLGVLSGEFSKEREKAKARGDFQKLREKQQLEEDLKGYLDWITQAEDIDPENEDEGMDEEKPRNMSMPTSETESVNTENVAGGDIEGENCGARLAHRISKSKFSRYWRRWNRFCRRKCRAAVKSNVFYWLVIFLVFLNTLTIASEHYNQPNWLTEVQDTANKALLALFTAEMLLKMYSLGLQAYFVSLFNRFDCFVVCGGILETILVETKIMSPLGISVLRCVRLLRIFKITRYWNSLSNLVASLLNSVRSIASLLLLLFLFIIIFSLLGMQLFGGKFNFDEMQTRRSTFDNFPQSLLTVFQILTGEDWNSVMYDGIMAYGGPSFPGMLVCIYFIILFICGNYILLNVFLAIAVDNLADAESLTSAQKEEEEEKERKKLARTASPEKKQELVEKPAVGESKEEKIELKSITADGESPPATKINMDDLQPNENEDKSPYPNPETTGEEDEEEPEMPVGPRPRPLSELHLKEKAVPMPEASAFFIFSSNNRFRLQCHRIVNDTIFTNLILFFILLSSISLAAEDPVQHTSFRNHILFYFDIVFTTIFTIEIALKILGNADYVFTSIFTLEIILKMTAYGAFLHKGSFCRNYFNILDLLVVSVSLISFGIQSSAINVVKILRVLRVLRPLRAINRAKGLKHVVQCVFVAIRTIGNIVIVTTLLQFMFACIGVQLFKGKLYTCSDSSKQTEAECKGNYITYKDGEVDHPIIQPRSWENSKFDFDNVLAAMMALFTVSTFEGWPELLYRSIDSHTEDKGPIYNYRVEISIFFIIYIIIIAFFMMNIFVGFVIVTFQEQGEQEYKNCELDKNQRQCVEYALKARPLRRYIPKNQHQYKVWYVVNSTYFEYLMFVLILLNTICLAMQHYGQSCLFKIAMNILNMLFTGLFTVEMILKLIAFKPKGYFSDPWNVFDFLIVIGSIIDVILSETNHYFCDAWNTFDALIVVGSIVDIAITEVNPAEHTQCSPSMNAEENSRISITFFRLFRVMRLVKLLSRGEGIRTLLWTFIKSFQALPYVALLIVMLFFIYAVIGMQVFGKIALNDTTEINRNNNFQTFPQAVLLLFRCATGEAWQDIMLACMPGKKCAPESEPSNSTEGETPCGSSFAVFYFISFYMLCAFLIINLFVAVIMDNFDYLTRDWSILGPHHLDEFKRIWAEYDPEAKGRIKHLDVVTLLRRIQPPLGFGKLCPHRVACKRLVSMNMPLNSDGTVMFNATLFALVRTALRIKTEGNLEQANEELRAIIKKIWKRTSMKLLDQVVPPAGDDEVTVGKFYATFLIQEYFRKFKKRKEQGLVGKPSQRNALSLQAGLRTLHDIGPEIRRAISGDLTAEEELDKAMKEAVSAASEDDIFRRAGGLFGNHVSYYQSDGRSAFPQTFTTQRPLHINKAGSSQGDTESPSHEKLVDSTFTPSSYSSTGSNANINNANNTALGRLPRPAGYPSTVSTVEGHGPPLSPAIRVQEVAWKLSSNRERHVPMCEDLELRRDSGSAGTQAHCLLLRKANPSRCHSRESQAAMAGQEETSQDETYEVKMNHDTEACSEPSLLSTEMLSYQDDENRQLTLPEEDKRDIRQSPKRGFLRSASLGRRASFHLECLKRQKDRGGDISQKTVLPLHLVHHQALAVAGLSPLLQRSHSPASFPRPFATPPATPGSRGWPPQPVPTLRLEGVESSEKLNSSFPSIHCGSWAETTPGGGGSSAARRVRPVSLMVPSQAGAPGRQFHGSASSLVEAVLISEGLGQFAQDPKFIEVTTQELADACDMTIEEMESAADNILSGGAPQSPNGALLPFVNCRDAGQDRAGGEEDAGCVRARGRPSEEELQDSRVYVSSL
T4 sequence (Q08289 whole entry partner): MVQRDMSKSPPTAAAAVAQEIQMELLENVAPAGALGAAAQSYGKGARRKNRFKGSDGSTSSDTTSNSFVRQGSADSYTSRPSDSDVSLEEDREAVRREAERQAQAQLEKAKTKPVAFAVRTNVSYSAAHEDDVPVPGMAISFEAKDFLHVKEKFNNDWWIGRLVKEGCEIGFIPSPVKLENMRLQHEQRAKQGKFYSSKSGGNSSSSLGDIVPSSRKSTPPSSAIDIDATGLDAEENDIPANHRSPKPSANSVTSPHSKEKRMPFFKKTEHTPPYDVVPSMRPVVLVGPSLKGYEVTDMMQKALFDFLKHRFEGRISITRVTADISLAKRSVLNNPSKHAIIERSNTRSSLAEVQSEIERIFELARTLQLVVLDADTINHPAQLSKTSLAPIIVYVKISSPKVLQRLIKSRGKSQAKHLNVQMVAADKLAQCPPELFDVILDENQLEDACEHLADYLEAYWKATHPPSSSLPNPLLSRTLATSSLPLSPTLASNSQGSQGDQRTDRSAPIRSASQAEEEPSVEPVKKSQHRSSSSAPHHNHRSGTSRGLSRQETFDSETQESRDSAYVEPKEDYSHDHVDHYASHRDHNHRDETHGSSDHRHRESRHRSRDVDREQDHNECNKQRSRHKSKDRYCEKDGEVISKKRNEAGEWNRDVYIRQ
T4 sequence (P54289 25-956 partner limits assumed): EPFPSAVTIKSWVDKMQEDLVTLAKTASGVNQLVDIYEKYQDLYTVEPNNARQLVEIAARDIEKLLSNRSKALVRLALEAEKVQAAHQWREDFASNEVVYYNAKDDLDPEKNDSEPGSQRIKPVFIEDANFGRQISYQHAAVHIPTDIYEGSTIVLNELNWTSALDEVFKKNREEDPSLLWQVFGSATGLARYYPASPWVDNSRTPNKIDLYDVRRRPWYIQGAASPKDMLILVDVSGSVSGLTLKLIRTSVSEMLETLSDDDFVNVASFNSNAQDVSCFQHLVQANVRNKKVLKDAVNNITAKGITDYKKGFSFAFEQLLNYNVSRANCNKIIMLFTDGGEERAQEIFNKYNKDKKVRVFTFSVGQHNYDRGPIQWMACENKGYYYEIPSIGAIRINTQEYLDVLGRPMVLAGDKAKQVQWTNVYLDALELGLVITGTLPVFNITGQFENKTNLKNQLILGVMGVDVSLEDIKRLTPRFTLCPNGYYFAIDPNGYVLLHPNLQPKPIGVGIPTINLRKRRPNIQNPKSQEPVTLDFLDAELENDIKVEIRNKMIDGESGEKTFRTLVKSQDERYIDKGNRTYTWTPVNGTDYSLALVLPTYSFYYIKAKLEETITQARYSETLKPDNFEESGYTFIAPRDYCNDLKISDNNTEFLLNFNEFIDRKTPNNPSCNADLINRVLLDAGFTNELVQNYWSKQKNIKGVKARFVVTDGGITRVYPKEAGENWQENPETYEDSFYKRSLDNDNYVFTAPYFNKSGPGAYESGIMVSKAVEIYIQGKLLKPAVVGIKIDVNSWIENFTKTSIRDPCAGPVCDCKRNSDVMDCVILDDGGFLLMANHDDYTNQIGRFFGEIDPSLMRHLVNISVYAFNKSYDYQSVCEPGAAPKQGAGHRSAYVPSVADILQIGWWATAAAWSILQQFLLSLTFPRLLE
T4 sequence (P54289 957-1103 partner limits assumed): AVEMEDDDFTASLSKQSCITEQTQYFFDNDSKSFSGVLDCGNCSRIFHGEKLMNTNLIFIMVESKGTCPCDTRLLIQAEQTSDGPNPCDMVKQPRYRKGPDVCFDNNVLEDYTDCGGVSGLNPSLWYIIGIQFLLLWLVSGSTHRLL

CC[C@@H](C(N)=O)N1CCCC1=O [LEV, Levetiracetam]
ED50 6 Hz (44 mA) [1]: 204.0 (154.5–269.5) mg/kg
ED50 MES ([2]; pretreatment 0.5 h (LEV 1.0 h)): >500 mg/kg
TD50 (rotarod test) ([3]; ref 32): >500 ** mg/kg
TD50 (rotarod test) ([3]; ref 34): >500 ** mg/kg

COc1cc(CNC(=O)CCCC/C=C/C(C)C)ccc1O [capsaicin]
effect on rectal (core body) temperature, given alone ([4]; i.p., capsaicin 5 mg/kg): produced a significant drop in the rectal temperature

O=C(C(c1ccccc1)N1C(=O)CCC1=O)N1CCN(c2cccc(C(F)(F)F)c2)CC1 (stereo not shown) [KA-104]
ED50 6 Hz (44 mA) [1]: 73.2 (57.4–93.4) mg/kg
ED50 MES ([2]; pretreatment 0.5 h (LEV 1.0 h)): 23.7 (18.4−31.2) mg/kg
ED50 6 Hz (32 mA) [5]: 22.4 (17.4−28.8) mg/kg

CC(=O)NC(C(=O)N1CCN(c2cccc(SC(F)(F)F)c2)CC1)c1ccccc1 (stereo not shown) [Compound 62, N-(2-oxo-1-phenyl-2-(4-(3-((trifluoromethyl)thio)phenyl)piperazin-1-yl)ethyl)acet--amide]
inhibition at 10 µM [6]: 65%
influence on CYP2C9 activity [7]: weak inhibition effect
scPTZ screening: number of mice protected/number of mice tested [8]: 0/4
IC50 [9]: 10 µM
Kb [9]: 1.4 µM
% Inhibition of Control Specific Binding, Na+ channel (site 2) ([10]; 10 µM): 57.0 (10) %
responders at 100 mg/kg ([11]; Mus musculus, ip, 100 mg/kg i.p., 0.5 h, four mice, read-out: protection in 6 Hz (32 mA) screening): 100%
responders at 100 mg/kg [11, 17]: 100%
ED50 [11, 18]: 33.2 mg/kg
inhibition at 100 µM [12]: 135%
inhibition at 10 µM ([13]; 10 µM): 12%
remaining at 2 h ([14]; human, human liver microsomes): 84%
Metabolic Pathway ([14]; metabolites after 120 min incubation with HLMs): hydroxylation
effect on HepG2 cell viability (hepatotoxicity) [15]: highest hepatotoxic risk
protection in MES screening [16]: 75%
responders at 100 mg/kg ([16]; Mus musculus, ip): 75%
ED50 [16, 18]: 76.1 mg/kg

CC(C)(C)c1ccc(NC(=O)N2CCN(c3ncccc3Cl)CC2)cc1 [BCTC, N-(4-Tertiarybutylphenyl)-4-(3-Chloropyridin-2-Yl)Tetrahydropyrazine-1(2H)-Carbox-Amide, reference compound]
scPTZ screening: number of mice protected/number of mice tested [8]: 0/4
protection in scPTZ screening ([8]; four mice): ineffective
protection in 6 Hz (32 mA) screening ([11]; 100 mg/kg i.p., 0.5 h, four mice): ineffective
responders at 100 mg/kg [11, 17]: 0%
effect on capsaicin-induced hypothermia (co-administration) ([4]; i.p. 15 min before capsaicin 5 mg/kg): prevented the capsaicin-evoked decrease in body temperature
protection in MES screening [16]: ineffective
responders at 100 mg/kg ([16]; Mus musculus, ip): 0%

CCCC(CCC)C(=O)O [VPA, Valproic acid]
ED50 6 Hz (32 mA) [5]: 130.6 (117.6−145.2) mg/kg

C=C(C)[C@@H]1CCC(C)=C[C@H]1c1c(O)cc(CCCCC)cc1O [CBD, cannabidiol, reference compound]
% Inhibition of Control Specific Binding, Na+ channel (site 2) ([10]; 100 µM): 94.8 (100) %
inhibition at 100 µM [12]: 48%
inhibition at 100 µM ([13]; 100 µM): 58%
ED50 MES ([2]; pretreatment 1.0 h): 80.0 (65.5−96.0) mg/kg

COC[C@@H](NC(C)=O)C(=O)NCc1ccccc1 [LCS, Lacosamide]
ED50 6 Hz (44 mA) [1]: 6.9 (5.4–8.6) mg/kg
ED50 MES ([2]; pretreatment 0.5 h (LEV 1.0 h)): 9.2 (8.5−10.0) mg/kg
ED50 6 Hz (32 mA) [5]: 5.3 (3.5−7.8) mg/kg
